# Where two headings read alike, the source gives them in different places.
# Key:
# SW620 cells = assay: 3D cell growth inhibition of SW620 cells carrying endogenous KRAS G12V mutation (CellTiter-Glo 3D, GI50); type: cell-based; details: Homo sapiens, SW-620, 144 h, read-out: SW620 3D cell growth GI50
# Method in brief: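 […], compound exposure lasted 6 days at 37° C, added the day after plating from DMSO stocks over a concentration range. Cells: SW620, KRAS G12V, 3D culture.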
# KRAS G12V = KRAS G12V (Homo sapiens (Human), UniProt P01116, G12V); assay: KRAS G12V degradation in SW620 cells (Western blot, DC50); type: cell-based; details: 24 hours
# Method in brief: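 KRAS levels were quantified by fluorescent Western blot as percent of the DMSO control after 24 h of compound exposure at 37° C in homozygous KRAS G12V SW620 cells. A four-parameter variable-slope fit of the dose-response gave the half-maximal degradation concentration.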
# KRAS-G12V/RAF1 = KRAS-G12V/RAF1 (Homo sapiens (Human), UniProt P01116, G12V); assay: KRAS/RAF1 binding inhibition assay (AlphaScreen)
# Method in brief: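 IC50 comes from variable-slope nonlinear fits of % inhibition (relative to DMSO) against inhibitor concentration. The AlphaScreen signal tracks the interaction of GppNHp-bound KRAS G12V with the RAF1 RBD after 60 min at 4° C with compound in 2% DMSO final.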
# Sequence of KRAS G12V (P01116-2 other isoform, or with tags, fused parts or gaps G12V): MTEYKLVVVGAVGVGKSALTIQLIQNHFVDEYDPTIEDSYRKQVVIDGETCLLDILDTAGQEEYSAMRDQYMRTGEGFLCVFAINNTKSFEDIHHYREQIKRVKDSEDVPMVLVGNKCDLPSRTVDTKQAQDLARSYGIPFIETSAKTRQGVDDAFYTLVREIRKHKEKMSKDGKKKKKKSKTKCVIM
# Sequence of KRAS-G12V/RAF1 (P01116-2 other isoform, or with tags, fused parts or gaps G12V): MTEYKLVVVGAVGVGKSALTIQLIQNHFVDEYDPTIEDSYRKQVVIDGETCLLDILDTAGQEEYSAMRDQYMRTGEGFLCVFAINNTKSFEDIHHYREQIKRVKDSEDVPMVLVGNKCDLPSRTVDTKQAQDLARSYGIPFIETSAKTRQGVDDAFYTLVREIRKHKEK
SMILES,DC50 (KRAS G12V),IC50 (KRAS-G12V/RAF1),"GI50 (SW620 cells; SW620 cells, 6 days)",GI50 (SW620 cells)
"CCc1c(F)ccc2cc(O)cc(-c3ncc4c(N5CCC[C@@](C)(O)C5)nc(OCC5(CN6CCC7(CC6)CN(CC6CCN(c8ccc9c(c8)CN(C8CCC(=O)NC8=O)C9=O)CC6)C7)CC5)nc4c3F)c12 (stereo partly drawn) [Compound 131, 3-(5-(4-((7-((1-(((7-(8-ethyl-7-fluoro-3-hydroxynaphthalen-1-yl)-8-fluoro-4-((R)-3-hydroxy-3-methylpiperidin-1-yl)pyrido[4,3-d]pyrimidin-2-yl)oxy)methyl)cyclopropyl)methyl)-2,7-diazaspiro[3.5]nonan-2-yl)methyl)piperidin-1-yl)-1-oxoisoindolin-2-yl)piperidine-2,6-dione]",< 1 nM,< 20 nM,,< 10 nM
"CCc1c(F)ccc2cc(O)cc(-c3ncc4c(N5CCC[C@@](C)(O)C5)nc(OCC5(CN6CC7(CCC(F)(CN8CCN(c9ccc(C(=O)N[C@H]%10CCC(=O)NC%10=O)c(F)c9)CC8)CC7)C6)CC5)nc4c3F)c12 [Compound 183, N-((S)-2,6-dioxopiperidin-3-yl)-4-(4-((2-((1-(((7-(8-ethyl-7-fluoro-3-hydroxynaphthalen-1-yl)-8-fluoro-4-((R)-3-hydroxy-3-methylpiperidin-1-yl)pyrido[4,3-d]pyrimidin-2-yl)oxy)methyl)cyclopropyl)methyl)-7-fluoro-2-azaspiro[3.5]nonan-7-yl)methyl)piperazin-1-yl)-2-fluorobenzamide]",> 100 nM,> 200 nM,10 to 100 nM,
"CCc1cccc2cc(O)cc(-c3ncc4c(N5CCC[C@@](C)(O)C5)nc(OCC5(CN6CC(CN7CC8(CCN(c9ccc%10c(c9)CN(C9CCC(=O)NC9=O)C%10=O)CC8)C7)C6)CC5)nc4c3F)c12 (stereo partly drawn) [Compound 17, 3-(5-(2-((1-((1-(((7-(8-ethyl-3-hydroxynaphthalen-1-yl)-8-fluoro-4-((R)-3-hydroxy-3-methylpiperidin-1-yl)pyrido[4,3-d]pyrimidin-2-yl)oxy)methyl)cyclopropyl)methyl)azetidin-3-yl)methyl)-2,7-diazaspiro[3.5]nonan-7-yl)-1-oxoisoindolin-2-yl)piperidine-2,6-dione]",> 100 nM,20 to 200 nM,> 100 nM,
"CCc1cccc2cc(O)cc(-c3ncc4c(N5CCC[C@@](C)(O)C5)nc(OCC5(CN6CCC7(CC6)CC(N6CCN(c8ccc9c(c8)C(=O)N(C8CCC(=O)NC8=O)C9=O)CC6)C7)CC5)nc4c3F)c12 (stereo partly drawn) [Compound 31, 2-(2,6-dioxopiperidin-3-yl)-5-(4-(7-((1-(((7-(8-ethyl-3-hydroxynaphthalen-1-yl)-8-fluoro-4-((R)-3-hydroxy-3-methylpiperidin-1-yl)pyrido[4,3-d]pyrimidin-2-yl)oxy)methyl)cyclopropyl)methyl)-7-azaspiro[3.5]nonan-2-yl)piperazin-1-yl)isoindoline-1,3-dione]",1 to 10 nM,20 to 200 nM,< 10 nM,
"CCc1c(F)ccc2cc(O)cc(-c3ncc4c(N5CCC=CCC5)nc(OCC5(CN6CCC7(CC6)CC(CN6CCN(c8ccc9c(c8)CN([C@H]8CCC(=O)NC8=O)C9=O)CC6)C7)CC5)nc4c3F)c12 [Compound 4, (S)-3-(5-(4-((7-((1-(((7-(8-ethyl-7-fluoro-3-hydroxynaphthalen-1-yl)-8-fluoro-4-(2,3,6,7-tetrahydro-1H-azepin-1-yl)pyrido[4,3-d]pyrimidin-2-yl)oxy)methyl)cyclopropyl)methyl)-7-azaspiro[3.5]nonan-2-yl)methyl)piperazin-1-yl)-1-oxoisoindolin-2-yl)piperidine-2,6-dione]",> 100 nM,> 200 nM,> 100 nM,
"CCc1c(F)ccc2cc(O)cc(-c3ncc4c(N5CCC[C@@](C)(O)C5)nc(OCC5(CN6CCC(N7CCC8(CCN(c9ccc%10c(c9)CN(C9CCC(=O)NC9=O)C%10=O)CC8)CC7)CC6)CC5)nc4c3F)c12 (stereo partly drawn) [Compound 145, 3-(5-(9-(1-((1-(((7-(8-ethyl-7-fluoro-3-hydroxynaphthalen-1-yl)-8-fluoro-4-((R)-3-hydroxy-3-methylpiperidin-1-yl)pyrido[4,3-d]pyrimidin-2-yl)oxy)methyl)cyclopropyl)methyl)piperidin-4-yl)-3,9-diazaspiro[5.5]undecan-3-yl)-1-oxoisoindolin-2-yl)piperidine-2,6-dione]",1 to 10 nM,< 20 nM,< 10 nM,
"CCc1c(F)ccc2cc(O)cc(-c3ncc4c(N5CCOCC(C)(O)C5)nc(OCC5(CN6CCC(CN7CCN(c8ccc9c(c8)CN([C@H]8CCC(=O)NC8=O)C9=O)CC7)CC6)CC5)nc4c3F)c12 (stereo partly drawn) [Compound 92, (3S)-3-(5-(4-((1-((1-(((7-(8-ethyl-7-fluoro-3-hydroxynaphthalen-1-yl)-8-fluoro-4-(6-hydroxy-6-methyl-1,4-oxazepan-4-yl)pyrido[4,3-d]pyrimidin-2-yl)oxy)methyl)cyclopropyl)methyl)piperidin-4-yl)methyl)piperazin-1-yl)-1-oxoisoindolin-2-yl)piperidine-2,6-dione]",1 to 10 nM,20 to 200 nM,< 10 nM,
"C[C@@]1(O)CCCN(c2nc(OCC3(CN4CC5(CCC(F)(CN6CCN(c7ccc8c(c7)CN([C@H]7CCC(=O)NC7=O)C8=O)CC6)CC5)C4)CC3)nc3c(F)c(-c4cc(O)cc5ccc(F)c(F)c45)ncc23)C1 [Compound 177, (S)-3-(5-(4-((2-((1-(((7-(7,8-difluoro-3-hydroxynaphthalen-1-yl)-8-fluoro-4-((R)-3-hydroxy-3-methylpiperidin-1-yl)pyrido[4,3-d]pyrimidin-2-yl)oxy)methyl)cyclopropyl)methyl)-7-fluoro-2-azaspiro[3.5]nonan-7-yl)methyl)piperazin-1-yl)-1-oxoisoindolin-2-yl)piperidine-2,6-dione]",> 100 nM,> 200 nM,10 to 100 nM,

# The next lines start with results.
DC50 (KRAS G12V),IC50 (KRAS-G12V/RAF1),"GI50 (SW620 cells; SW620 cells, 6 days)",SMILES,GI50 (SW620 cells)
1 to 10 nM,20 to 200 nM,< 10 nM,"CCc1c(F)ccc2cc(O)cc(-c3ncc4c(N5CCC[C@@](C)(O)C5)nc(OCC5(CN6CCC(C)(CN7CCN(c8ccc9c(c8)CN([C@@H]8CCC(=O)NC8=O)C9=O)CC7)CC6)CC5)nc4c3F)c12 [Compound 63, (R)-3-(5-(4-((1-((1-(((7-(8-ethyl-7-fluoro-3-hydroxynaphthalen-1-yl)-8-fluoro-4-((R)-3-hydroxy-3-methylpiperidin-1-yl)pyrido[4,3-d]pyrimidin-2-yl)oxy)methyl)cyclopropyl)methyl)-4-methylpiperidin-4-yl)methyl)piperazin-1-yl)-1-oxoisoindolin-2-yl)piperidine-2,6-dione]",
< 1 nM,< 20 nM,< 10 nM,"CCc1c(F)ccc2cc(O)cc(-c3ncc4c(N5CCC[C@@](C)(O)C5)nc(OCC5(CN6CCC(N7CC8(CCN(c9ccc%10c(c9)CN(C9CCC(=O)NC9=O)C%10=O)CC8)C7)CC6)CC5)nc4c3F)c12 (stereo partly drawn) [Compound 143, 3-(5-(2-(1-((1-(((7-(8-ethyl-7-fluoro-3-hydroxynaphthalen-1-yl)-8-fluoro-4-((R)-3-hydroxy-3-methylpiperidin-1-yl)pyrido[4,3-d]pyrimidin-2-yl)oxy)methyl)cyclopropyl)methyl)piperidin-4-yl)-2,7-diazaspiro[3.5]nonan-7-yl)-1-oxoisoindolin-2-yl)piperidine-2,6-dione]",
1 to 10 nM,< 20 nM,> 100 nM,"CCc1c(F)ccc2cc(O)cc(-c3ncc4c(N5CCC[C@@](C)(O)C5)nc(OCC5(CN6CC7(CCN(C8CCN(c9ccc%10c(c9)CN(C9CCC(=O)NC9=O)C%10=O)CC8)CC7)C6)CC5)nc4c3F)c12 (stereo partly drawn) [Compound 166, 3-(5-(4-(2-((1-(((7-(8-ethyl-7-fluoro-3-hydroxynaphthalen-1-yl)-8-fluoro-4-((R)-3-hydroxy-3-methylpiperidin-1-yl)pyrido[4,3-d]pyrimidin-2-yl)oxy)methyl)cyclopropyl)methyl)-2,7-diazaspiro[3.5]nonan-7-yl)piperidin-1-yl)-1-oxoisoindolin-2-yl)piperidine-2,6-dione]",
< 1 nM,20 to 200 nM,< 10 nM,"CCc1c(F)ccc2cc(O)cc(-c3ncc4c(N5CCC[C@@](C)(O)C5)nc(OCC5(CN6CCN(CC7CCN(c8ccc9c(c8)CN([C@H]8CCC(=O)NC8=O)C9=O)CC7)CC6)CC5)nc4c3F)c12 [Compound 10, (S)-3-(5-(4-((4-((1-(((7-(8-ethyl-7-fluoro-3-hydroxynaphthalen-1-yl)-8-fluoro-4-((R)-3-hydroxy-3-methylpiperidin-1-yl)pyrido[4,3-d]pyrimidin-2-yl)oxy)methyl)cyclopropyl)methyl)piperazin-1-yl)methyl)piperidin-1-yl)-1-oxoisoindolin-2-yl)piperidine-2,6-dione]",
< 1 nM,20 to 200 nM,< 10 nM,"CCc1c(F)ccc2cc(O)cc(-c3ncc4c(N5CCC[C@@](C)(O)C5)nc(OCC5(CN6CCC7(CC6)CC(OC6CCN(c8ccc9c(c8)CN(C8CCC(=O)NC8=O)C9=O)CC6)C7)CC5)nc4c3F)c12 (stereo partly drawn) [Compound 176, 3-(5-(4-((7-((1-(((7-(8-ethyl-7-fluoro-3-hydroxynaphthalen-1-yl)-8-fluoro-4-((R)-3-hydroxy-3-methylpiperidin-1-yl)pyrido[4,3-d]pyrimidin-2-yl)oxy)methyl)cyclopropyl)methyl)-7-azaspiro[3.5]nonan-2-yl)oxy)piperidin-1-yl)-1-oxoisoindolin-2-yl)piperidine-2,6-dione]",

# Source: patent publication US20250092039A1, “GLUTARIMIDE-CONTAINING PAN-KRAS-MUTANT DEGRADER COMPOUNDS AND USES THEREOF” (Tiger Biotherapeutics Inc., priority 2022, published 2025)
